# Measured values published in ChEMBL document CHEMBL3813662, “Synthesis and biological activity of pyrazole analogues of the staurosporine aglycon K252c” (Bioorg Med Chem, 2016).
# Activity calls are given as the source filed them. The calls are words filed in the database; no cut-off is given here.
# Assays:
# K562 [1] = test: Cytotoxicity against human K562 cells after 72 hrs by MTT assay; format: functional, cell-based; settings: K562, 72 h
# [2] = Cytotoxicity against human HCT116 cells after 72 hrs by MTT assay; format: functional, cell-based; settings: HCT-116, 72 h
# [3] = target: Protein kinase C alpha type (Homo sapiens) (UniProt P17252); test: Inhibition of human full length (His)6-tagged PKCalpha expressed in insect Sf21 cells using histone H1 as substrate assessed as residual enzyme activity at 10 uM measured for 30 mins by [gamma-33P]ATP-based kinase assay
# [4] = target: Protein kinase C alpha type (Homo sapiens) (UniProt P17252); test: Inhibition of human full length (His)6-tagged PKCalpha expressed in insect Sf21 cells using histone H1 as substrate assessed as residual enzyme activity at 1 uM measured for 30 mins by [gamma-33P]ATP-based kinase assay
# [5] = target: Protein kinase C gamma type (Homo sapiens) (UniProt P05129); test: Inhibition of human full length (His)6-tagged PKCgamma expressed in insect Sf21 cells using histone H1 as substrate assessed as residual enzyme activity at 10 uM measured for 30 mins by [gamma-33P]ATP-based kinase assay
# [6] = target: Protein kinase C gamma type (Homo sapiens) (UniProt P05129); test: Inhibition of human full length (His)6-tagged PKCgamma expressed in insect Sf21 cells using histone H1 as substrate assessed as residual enzyme activity at 1 uM measured for 30 mins by [gamma-33P]ATP-based kinase assay
# [7] = target: T1, Serine/threonine-protein kinase pim-1 (Homo sapiens, UniProt P11309); test: Inhibition of human full length (His)6-tagged Pim-1 expressed in insect Sf21 cells using RSRHSSYPAGT as substrate assessed as residual enzyme activity at 10 uM measured for 30 mins by [gamma-33P]ATP-based kinase assay
# Target sequence in this assay (P11309 whole entry, looked up): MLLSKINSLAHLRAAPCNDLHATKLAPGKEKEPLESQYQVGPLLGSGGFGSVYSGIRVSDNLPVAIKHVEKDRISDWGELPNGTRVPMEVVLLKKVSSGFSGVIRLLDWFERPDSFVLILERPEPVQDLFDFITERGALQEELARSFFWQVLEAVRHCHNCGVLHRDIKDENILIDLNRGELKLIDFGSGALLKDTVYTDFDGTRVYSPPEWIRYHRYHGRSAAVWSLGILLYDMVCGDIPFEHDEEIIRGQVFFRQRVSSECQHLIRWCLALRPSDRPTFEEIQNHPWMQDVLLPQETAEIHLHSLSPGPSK
# [8] = target: T1, Serine/threonine-protein kinase pim-1; test: Inhibition of human full length (His)6-tagged Pim-1 expressed in insect Sf21 cells using RSRHSSYPAGT as substrate assessed as residual enzyme activity at 1 uM measured for 30 mins by [gamma-33P]ATP-based kinase assay
# Target sequence in this assay (P11309 whole entry, looked up): as above
# K562 [9] = test: Cytotoxicity against human K562 cells; format: functional, cell-based
# [10] = target: T1, Serine/threonine-protein kinase pim-1; test: Inhibition of human full length (His)6-tagged Pim-1 expressed in insect Sf21 cells using RSRHSSYPAGT as substrate measured for 30 mins by [gamma-33P]ATP-based kinase assay
# Target sequence in this assay (P11309 whole entry): as the sequence (P11309 whole entry, looked up) above
# [11] = target: Serine/threonine-protein kinase pim-2 (Homo sapiens, UniProt Q9P1W9); test: Inhibition of human full length GST-tagged Pim-2 expressed in Escherichia coli using RSRHSSYPAGT as substrate measured for 30 mins by [gamma-33P]ATP-based kinase assay
# [12] = target: Serine/threonine-protein kinase pim-3 (Homo sapiens, UniProt Q86V86); test: Inhibition of human full length (His)6-tagged Pim-3 expressed in insect Sf21 cells using RSRHSSYPAGT as substrate measured for 30 mins by [gamma-33P]ATP-based kinase assay
# Calf thymus DNA [13] = test: Binding affinity to calf thymus double stranded DNA assessed as dsDNA level causing quenching of compound fluorescence by fluorescence spectrophotometric analysis; format: nucleic-acid assay, Bos taurus
# Calf thymus DNA [14] = test: Displacement of EtBr from calf thymus double stranded DNA by fluorescence spectrophotometric analysis; format: nucleic-acid assay, Bos taurus
# [15] = target: T2, DNA topoisomerase 1 (Homo sapiens) (UniProt P11387); test: Inhibition of human topoisomerase1 activity at 20 uM using pBR322 plasmid DNA as substrate incubated for 30 mins by EtBr-based gel electrophoresis
# T2 sequence (whole entry): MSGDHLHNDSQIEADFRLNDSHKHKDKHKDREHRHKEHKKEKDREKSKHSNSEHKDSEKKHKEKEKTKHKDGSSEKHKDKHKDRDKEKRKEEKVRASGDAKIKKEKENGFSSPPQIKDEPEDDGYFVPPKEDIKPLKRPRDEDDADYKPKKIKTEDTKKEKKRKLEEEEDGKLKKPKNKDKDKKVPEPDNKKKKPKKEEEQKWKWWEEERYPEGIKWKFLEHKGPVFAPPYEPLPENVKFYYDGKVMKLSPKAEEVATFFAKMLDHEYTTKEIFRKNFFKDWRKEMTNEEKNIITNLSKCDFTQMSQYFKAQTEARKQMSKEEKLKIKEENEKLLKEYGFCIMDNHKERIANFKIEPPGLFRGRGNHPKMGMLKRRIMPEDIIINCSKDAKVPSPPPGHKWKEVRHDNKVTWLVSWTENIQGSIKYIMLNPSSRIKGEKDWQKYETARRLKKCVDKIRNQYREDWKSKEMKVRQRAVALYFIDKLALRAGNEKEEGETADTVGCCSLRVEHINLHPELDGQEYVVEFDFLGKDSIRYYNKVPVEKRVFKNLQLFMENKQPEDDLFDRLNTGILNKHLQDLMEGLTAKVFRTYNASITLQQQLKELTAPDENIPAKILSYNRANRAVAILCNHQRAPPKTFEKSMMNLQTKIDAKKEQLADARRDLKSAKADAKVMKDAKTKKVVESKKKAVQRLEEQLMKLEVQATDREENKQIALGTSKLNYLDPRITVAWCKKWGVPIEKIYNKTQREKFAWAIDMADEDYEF
# Sequence of Serine/threonine-protein kinase pim-2 (Q9P1W9 whole entry): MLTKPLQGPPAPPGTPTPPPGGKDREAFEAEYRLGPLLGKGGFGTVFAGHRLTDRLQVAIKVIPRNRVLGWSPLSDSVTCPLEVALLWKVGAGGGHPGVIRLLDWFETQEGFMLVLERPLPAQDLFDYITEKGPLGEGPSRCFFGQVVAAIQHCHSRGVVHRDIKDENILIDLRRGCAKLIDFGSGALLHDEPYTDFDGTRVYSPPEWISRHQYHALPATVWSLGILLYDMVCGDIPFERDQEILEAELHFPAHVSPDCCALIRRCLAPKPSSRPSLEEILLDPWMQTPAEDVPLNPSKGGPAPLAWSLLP
Activity [3] [%],Activity [4] [%],Activity [5] [%],Activity [6] [%],Activity [7] [%],Activity [8] [%],IC50 [10] [nM],IC50 [11] [nM],IC50 [12] [nM],IC50 (Calf thymus DNA [13]) [µM],IC50 (Calf thymus DNA [14]) [µM],inhibition [15],Structure (SMILES),IC50 (K562 [1]) [µM],IC50 [2] [µM],IC50 (K562 [9]) [µM]
100,112,91,105,73,98,–,–,–,–,–,–,c1ccc2c(-c3cn[nH]c3-c3c[nH]c4ccccc34)c[nH]c2c1,18,30,–
93,117,92,100,67,94,–,–,–,–,–,–,O=c1[nH][nH]c(-c2c[nH]c3ccccc23)c1-c1c[nH]c2ccccc12,> 50,> 50,–

# Continued, compound first:
Structure (SMILES),Activity [3] [%],Activity [4] [%],Activity [5] [%],Activity [6] [%],Activity [7] [%],Activity [8] [%],IC50 [10] [nM],IC50 [11] [nM],IC50 [12] [nM],IC50 (Calf thymus DNA [13]) [µM],IC50 (Calf thymus DNA [14]) [µM],inhibition [15],IC50 (K562 [1]) [µM],IC50 [2] [µM],IC50 (K562 [9]) [µM]
O=c1[nH][nH]c2c1c1c3ccccc3[nH]c1c1[nH]c3ccccc3c12,110,107,99,97,8,47,–,–,–,–,–,–,8.8,3.5,–
O=C1NCc2c1c1c3ccccc3[nH]c1c1[nH]c3ccccc3c21 [STAUROSPORINONE],–,–,–,–,–,–,–,–,–,–,–,–,–,–,7.8
c1ccc2c(c1)[nH]c1c3[nH]c4ccccc4c3c3[nH]ncc3c21,108,103,91,101,2,13,150,590,22,90,16,inactive,4.5,4.2,–
